Experimental findings from patent publication US20100197625A1, “SYNTHETIC LIPOPHILIC INOSITOL GLYCANS FOR TREATMENT OF CANCER AND GLUCOSE-METABOLISM DISORDERS” (priority 2006, published 2010) are described below.

As usually defined, the EC50 is the concentration needed to bring the measured effect to its halfway point.

Series [1] relates to human umbilical vein endothelial cells (HUVEC). Description: Cell death of human umbilical vein endothelial cells. To be noted: in 1 hour, with IG-1. The class given is cell-based.
For another series, the system named is Panc-1 cells. The experiment in a line: Cell proliferation / cell death assay, Panc-1. To be noted: Panc-1, after 3 days (72 hours). The class given is cell-based, human. As for the experimental part:
(§1) Human pancreatic cancer cell lines (Panc-1, MiaPaca2, BXPC3, Aspc 1), human hepatoma cell line (HuH7), human gastric cancer cell lines (AGS, MKN45), human colon cancer cell line (CoCM-1), human mammary cancer cell line (MCF-7), human neuroblastoma (SH-SY5Y), human prostate cancer cells (PC3), and murine Ehrlich ascites cancer cells and mouse 3T3-L1 fibroblasts were obtained from American Type Culture Collection (Rockville, Md., USA). The cancer cells were cultured in RPMI 1640 containing 10% fetal calf serum. Cultures were maintained at 37° C. in a humidified atmosphere of 5% CO2.
(§2) Cell proliferation assays were performed with the CellTiter 96 AQueous One Solution Cell Proliferation Assay kit according to the manufacturer's instructions (Promega, Madison, Wis., USA). Briefly, 5×10^3 cells/well in medium were placed onto 96-well plates. IGs were added to cellular cultures at final concentrations of 0, 1, 10, and 100 μM. […] of CellTiter 96 AQueous One Solution Reagent, which contains a tetrazolium compound, 3-(4,5-dimethylthiazol-2-yl)-5-(3-carboxymethoxyphenyl)-2-(4-sulfophenyl)-2H-tetrazolium, an inner salt; MTS was added to the culture medium. After incubating the plate for 1 h in a CO2 incubator, absorbance at 490 nm was recorded with a 96-well plate reader.

Another series concerns native rat adipocytes. The experiment in a line: Lipogenesis in native rat adipocytes. The class given is cell-based. The procedure:
Adipocytes were isolated from epididymal fat pads dissected from freshly sacrificed male Long-Evans rats and incorporation of [6-^3H]-glucose into triglycerides in response to treatment with inositol glycans or insulin was measured as previously described (Chakraborty, N. and M. d'Alarcao, Bioorganic & Medicinal Chemistry 13 (2005) 6732-6741).

Series [2] relates to human normal cultured cells. Description: Proliferation of human normal cultured cells. In kind it is cell-based. To be noted: 1-100 μM, data not shown. The procedure: Human primary culture cells, dermal fibroblasts, epidermal keratinocytes and umbilical vein endothelial cells were purchased from Cell Applications (San Diego, Calif., USA) and cultured according to the manufacturer's instructions.
Cell proliferation assays were performed with the CellTiter 96 AQueous One Solution Cell Proliferation Assay kit according to the manufacturer's instructions (Promega, Madison, Wis., USA). Briefly, 5×10^3 cells/well in medium were placed onto 96-well plates. IGs were added to cellular cultures at final concentrations of 0, 1, 10, and 100 μM. Cultures were incubated for 3 days or 7 days and then added to 20 μL/well of CellTiter 96 AQueous One Solution Reagent, which contains a tetrazolium compound, 3-(4,5-dimethylthiazol-2-yl)-5-(3-carboxymethoxyphenyl)-2-(4-sulfophenyl)-2H-tetrazolium, an inner salt; MTS was added to the culture medium. After incubating the plate for 1 h in a CO2 incubator, absorbance at 490 nm was recorded with a 96-well plate reader.

Series [3] relates to 3T3-L1 adipocytes. The experiment in a line: Glycogen synthesis in 3T3-L1 adipocytes. In kind it is cell-based, mouse. To be noted: 100 μM. As for the experimental part:
(§3) 3T3-L1 fibroblasts were maintained in Dulbecco's modified Eagle's medium (DMEM) with 25 mM glucose plus 10% fetal bovine serum (FBS). Following 2 days at confluence, differentiation was initiated by the addition of DMEM containing 10% FBS, 167 nM insulin, […] dexamethasone, and 0.5 mM isobutylmethylxanthine. Three days later, the medium was replaced with DMEM plus 10% FBS and 167 nM insulin. After 2 more days, the medium was switched to DMEM plus 10% fetal bovine serum. Adipocytes were used 6-14 days after completion of the differentiation protocol, when >90% of the cells expressed the adipocyte phenotype. Prior to experiments, cells were washed two times with DMEM medium containing 5 mM glucose, 0.2% bovine serum albumin, 25 mM Hepes (pH 7.4), 100 units/ml penicillin, 100 units/ml streptomycin and 0.29 mg/ml glutamine, and were incubated in the same medium for 2 h. Glycogen and lipid synthesis were measured in 24-well dishes. […] The lipids were then extracted overnight with 5 ml of Betafluor (National Diagnostics), and glucose incorporation into lipid was measured by scintillation counting. 400 μl of the cell suspension was added to 600 μl of 50% KOH, and glycogen was precipitated and radioactivity was counted by a liquid scintillation counter

Series [4] concerns 3T3-L1 adipocytes. Description: Lipogenesis in 3T3-L1 adipocytes. To be noted: 100 μM. In kind it is cell-based, mouse. As for the experimental part:
as §3

The next series concerns human hepatoma (HuH7). The experiment in a line: Cell proliferation / cell death assay, HuH7. In kind it is cell-based. To be noted: HuH7, in 24 hours after treatment. As for the experimental part:
as §1, §2

Series [5] has as its system human neuroblastoma (SH-SY5Y). The experiment in a line: Cell proliferation / cell death assay, SH-SY5Y. In kind it is cell-based. To be noted: in 24 hours after treatment. The procedure:
as §1, §2

The subject of series [6] is human prostate cancer cells (PC3). The experiment in a line: Cell proliferation / cell death assay, PC3. In kind it is cell-based. To be noted: PC3, in 24 hours after treatment. The procedure: as §1, §2

For the compound `CCCCC/C=C\C/C=C\C/C=C\C/C=C\CCCC(=O)O[C@H](COCCCCCCCCCCCCCCCCCC)COP(=O)(O)O` [AAPA2, 1-0-alkyl (18:0)-2-0-acyl-(20:4)-sn-glycerol-phosphate], the “effect on rapid cell death of HUVEC induced by IG-1” value in series [1] is “inhibits this rapid cell death”.

With `CCCCCCCCCCCCCCCC(=O)OC1[C@H](O)C(O)C(O)[C@H](O)[C@@H]1O[C@H]1OC(CO)[C@@H](O)[C@H](O)C1N` (stereo partly drawn) [IG13, 2-Amino-2-deoxy-α-D-glucopyranosyl-(1→6)-1-palmitoyl-D-myo-inositol], the cell death entry in the series on Panc-1 cells is on record as “induced cancer cell death”. The stimulation of lipogenesis entry in the series with native rat adipocytes (native rat adipocytes, 40 μM) is “little or no lipogenesis”. Further, the “proliferation of human normal cultured cells” value (from here on “proliferation”) in series [2] was “did not affect the proliferation”.

Take `CCCCCCCCCCCCCCCC(=O)O[C@H]1[C@@H](O)[C@H](O)[C@@H](O)[C@H](O)[C@H]1O[C@H]1O[C@H](CO)[C@@H](O)[C@H](O)[C@H]1N` [IG14, 2-Amino-2-deoxy-α-D-glucopyranosyl-(1→3)-2-palmitoyl-D-myo-inositol]: the cell death result in the series with Panc-1 cells is “induced cancer cell death”. The stimulation of lipogenesis entry with native rat adipocytes (native rat adipocytes, 40 μM) was “little or no lipogenesis”. For the same compound, the “proliferation” value in series [2] is reported as “did not affect the proliferation”.

On to `CCCCCCCCCCCCCCCC(=O)O[C@@H]1C(O)C(O[C@H]2OC(CO)[C@@H](O)[C@H](O)C2N)[C@@H](O)[C@@H](O)C1O` (stereo partly drawn) [IG15, 2-Amino-2-deoxy-α-D-glucopyranosyl-(1→3)-1-palmitoyl-D-myo-inositol], for which, in the series with 3T3-L1 adipocytes [3], the glycogen synthesis entry was “stimulates”. Also, the cell death result in the series on Panc-1 cells is recorded as “induced cancer cell death”. In addition, in the series with 3T3-L1 adipocytes [4], the lipogenesis result was “stimulates”. In addition, the stimulation of lipogenesis entry in the series with native rat adipocytes (native rat adipocytes, 40 μM) is given as “little or no lipogenesis”. Further, the “proliferation” value in series [2] is listed as “did not affect the proliferation”.

Turning to `CCCCCCCCCCCCCCCC(=O)O[C@@H]1C(O)C(O)[C@H](O)[C@H](O[C@H]2OC(CO)[C@@H](O)[C@H](O)C2N)C1OP(=O)(O)O` (stereo partly drawn) [IG2, 2-Amino-2-deoxy-α-D-glucopyranosyl-(1→6)-2-palmitoyl-D-myo-inositol-1-phosphate], the cancer cell death result (with human hepatoma (HuH7); in series [5]; in [6]) was “induced cancer cell death” throughout. Further, in the series with native rat adipocytes (Adipocyte, rat isolated adipocytes, fit to receptor binding model, read-out: EC50 value for stimulation of lipogenesis), the EC50 stood at 2500 nM. Moreover, the Emax in the series with native rat adipocytes (Adipocyte, rat isolated adipocytes, stimulation of lipogenesis, read-out: Amax (maximal effect)) amounted to 37%. The stimulation of lipogenesis entry in the series with native rat adipocytes (rat isolated adipocytes, concentration series) is “stimulated lipogenesis”. Moreover, in series [2], the “proliferation” value is listed as “no effect on the proliferation”.
